This is an account of results in patent US5416070A, “Composition for macrophage activation” (ImmunoTherapeutics, Inc., priority 1990, dated 1995).

The assay deals with Meth A sarcoma. As to the kind of experiment: Antitumor activity in saline in the Meth A sarcoma. It counts as in vivo, mice. The procedure:
BALB/C female mice, age 7 weeks, were injected subcutaneously with 1×10^6 Meth A tumor cells. Eight days later the animals were treated intravenously with either saline (control) or Compound IIA at a dose of 1, 10, or 100 micrograms (μg). Each group consisted of 4 animals. Tumor measurements were taken every 2 days for 10 days and the mice followed for 60 days until cured or death due to tumor occurred.

For the compound `CCCCCCCCCCCCCCCC(=O)OCC(COC(=O)C(C)NC(=O)CCC(NC(=O)C(C)NC(=O)C(C)OC1C(NC(C)=O)C(O)OC(CO)C1OC1OC(CO)C(O)C(O)C1NC(C)=O)C(N)=O)OC(=O)CCCCCCCCCCCCCCC` [Compound IIA, 4-O-[2-acetamido-2-deoxy-β-D-glucopyranosyl]-2-acetamido-2-deoxy-3-O-[D-2-propanoyl-L-alanyl-D-isoglutaminyl-L-alanyl-1,2-dipalmitoyl-sn-glycerol]-D-glucopyranose], the “animals exhibiting complete regression of tumor” value (100 μg i.v.) is listed as “one of four”. Moreover, the “decrease in tumor growth” value (day 6 after therapy, single i.v. dose of 100 μg) was found to be 50%.
